According to ChEMBL document CHEMBL4411344, “Synthesis and biological evaluation of new long-chain squaramides as anti-chagasic agents in the BALB/c mouse model” (Bioorg Med Chem, 2019):

Test system: Trypanosoma cruzi
Experiment: Trypanocidal activity against Trypanosoma cruzi MHOM/Pe/2011/Arequipa DTU 5 epimastigotes after 72 hrs by resazurin dye based assay
Assay type: functional, organism-based
Settings: MHOM/Pe/2011/Arequipa DTU 5, 72 h

Row | Structure (SMILES) | IC50 [µM]
1 | CN(C)CCCN(C)c1c(NCCCN(C)CCCNc2c(N(C)CCCN(C)C)c(=O)c2=O)c(=O)c1=O | 177
2 | CCCCCCCCCCCC[N+](C)(C)CCCN(C)c1c(O)c(=O)c1=O | 22.1
3 | CCCCCCCCCCCCNc1c(N(C)CCCN(C)C)c(=O)c1=O | 64.6
4 | CN(C)CCCN(C)c1c(N(C)CCCN(C)C)c(=O)c1=O | 107
5 | CCCCCCCCNc1c(N(C)CCCN(C)C)c(=O)c1=O | 102
6 | CCCCCCCCCCCC[N+](C)(C)CCCN(C)c1c(OCC)c(=O)c1=O | 63.3

Test system: not listed separately
Experiment: Selectivity index, ratio of IC50 for African green monkey Vero cells to IC50 for Trypanosoma cruzi TINF/CH/1956/Tulahuen DTU 6 epimastigotes
Assay type: toxicity
Settings: read-out: Ratio IC50

Row | Structure (SMILES) | selectivity ratio
7 | CN(C)CCCN(C)c1c(NCCCN(C)CCCNc2c(N(C)CCCN(C)C)c(=O)c2=O)c(=O)c1=O | 9
8 | CCCCCCCCCCCC[N+](C)(C)CCCN(C)c1c(O)c(=O)c1=O | 2.4
9 | CCCCCCCCCCCCNc1c(N(C)CCCN(C)C)c(=O)c1=O | 2.6
10 | CN(C)CCCN(C)c1c(N(C)CCCN(C)C)c(=O)c1=O | 3.2
11 | CCCCCCCCNc1c(N(C)CCCN(C)C)c(=O)c1=O | 14.2
12 | CCCCCCCCCCCC[N+](C)(C)CCCN(C)c1c(OCC)c(=O)c1=O | 4

Test system: Trypanosoma cruzi
Experiment: Trypanocidal activity against Trypanosoma cruzi IRHOD/CO/2008/SN3 DTU 1 epimastigotes after 72 hrs by resazurin dye based assay
Assay type: functional, organism-based
Settings: IRHOD/CO/2008/SN3 DTU 1, 72 h

Row | Structure (SMILES) | IC50 [µM]
13 | CN(C)CCCN(C)c1c(NCCCN(C)CCCNc2c(N(C)CCCN(C)C)c(=O)c2=O)c(=O)c1=O | 311
14 | CCCCCCCCCCCC[N+](C)(C)CCCN(C)c1c(O)c(=O)c1=O | 33.1
15 | CCCCCCCCCCCCNc1c(N(C)CCCN(C)C)c(=O)c1=O | 37.5
16 | CN(C)CCCN(C)c1c(N(C)CCCN(C)C)c(=O)c1=O | 404
17 | CCCCCCCCNc1c(N(C)CCCN(C)C)c(=O)c1=O | 87.8
18 | CCCCCCCCCCCC[N+](C)(C)CCCN(C)c1c(OCC)c(=O)c1=O | 74.5

Test system: Trypanosoma cruzi
Experiment: Trypanocidal activity against Trypanosoma cruzi TINF/CH/1956/Tulahuen DTU 6 epimastigotes after 72 hrs by resazurin dye based assay
Assay type: functional, organism-based
Settings: TINF/CH/1956/Tulahuen DTU 6, 72 h

Row | Structure (SMILES) | IC50 [µM]
19 | CN(C)CCCN(C)c1c(NCCCN(C)CCCNc2c(N(C)CCCN(C)C)c(=O)c2=O)c(=O)c1=O | 241
20 | CCCCCCCCCCCC[N+](C)(C)CCCN(C)c1c(O)c(=O)c1=O | 66.1
21 | CCCCCCCCCCCCNc1c(N(C)CCCN(C)C)c(=O)c1=O | 49.5
22 | CN(C)CCCN(C)c1c(N(C)CCCN(C)C)c(=O)c1=O | 360
23 | CCCCCCCCNc1c(N(C)CCCN(C)C)c(=O)c1=O | 82
24 | CCCCCCCCCCCC[N+](C)(C)CCCN(C)c1c(OCC)c(=O)c1=O | 89.1

Test system: not listed separately
Experiment: Selectivity index, ratio of IC50 for African green monkey Vero cells to IC50 for Trypanosoma cruzi IRHOD/CO/2008/SN3 DTU 1 epimastigotes
Assay type: toxicity
Settings: read-out: Ratio IC50

Row | Structure (SMILES) | selectivity ratio
25 | CN(C)CCCN(C)c1c(NCCCN(C)CCCNc2c(N(C)CCCN(C)C)c(=O)c2=O)c(=O)c1=O | 7
26 | CCCCCCCCCCCC[N+](C)(C)CCCN(C)c1c(O)c(=O)c1=O | 4.8
27 | CCCCCCCCCCCCNc1c(N(C)CCCN(C)C)c(=O)c1=O | 3.4
28 | CN(C)CCCN(C)c1c(N(C)CCCN(C)C)c(=O)c1=O | 2.8
29 | CCCCCCCCNc1c(N(C)CCCN(C)C)c(=O)c1=O | 13.2
30 | CCCCCCCCCCCC[N+](C)(C)CCCN(C)c1c(OCC)c(=O)c1=O | 4.7

Test system: not listed separately
Experiment: Selectivity index, ratio of IC50 for African green monkey Vero cells to IC50 for Trypanosoma cruzi MHOM/Pe/2011/Arequipa DTU 5 epimastigotes
Assay type: toxicity
Settings: read-out: Ratio IC50

Row | Structure (SMILES) | selectivity ratio
31 | CN(C)CCCN(C)c1c(NCCCN(C)CCCNc2c(N(C)CCCN(C)C)c(=O)c2=O)c(=O)c1=O | 12.2
32 | CCCCCCCCCCCC[N+](C)(C)CCCN(C)c1c(O)c(=O)c1=O | 7.2
33 | CCCCCCCCCCCCNc1c(N(C)CCCN(C)C)c(=O)c1=O | 2
34 | CN(C)CCCN(C)c1c(N(C)CCCN(C)C)c(=O)c1=O | 10.6
35 | CCCCCCCCNc1c(N(C)CCCN(C)C)c(=O)c1=O | 11.4
36 | CCCCCCCCCCCC[N+](C)(C)CCCN(C)c1c(OCC)c(=O)c1=O | 5.6

Test system: Vero
Experiment: Cytotoxicity against African green monkey Vero cells assessed as reduction in cell viability after 72 hrs by resazurin dye based assay
Settings: Chlorocebus sabaeus

Row | Structure (SMILES) | IC50 [µM]
37 | CN(C)CCCN(C)c1c(NCCCN(C)CCCNc2c(N(C)CCCN(C)C)c(=O)c2=O)c(=O)c1=O | 2170
38 | CCCCCCCCCCCC[N+](C)(C)CCCN(C)c1c(O)c(=O)c1=O | 160
39 | CCCCCCCCCCCCNc1c(N(C)CCCN(C)C)c(=O)c1=O | 128
40 | CN(C)CCCN(C)c1c(N(C)CCCN(C)C)c(=O)c1=O | 1140
41 | CCCCCCCCNc1c(N(C)CCCN(C)C)c(=O)c1=O | 1150
42 | CCCCCCCCCCCC[N+](C)(C)CCCN(C)c1c(OCC)c(=O)c1=O | 353
